The supplement of paper PMC10307832

What was measured:
Assay in all cases: relative viability (nuclei count vs DMSO), 5 days (fraction); higher = more cells survive
NCI-H2126 = tested on: NCI-H2126
Method in brief: (§1)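 The day after seeding in 1536-well plates, lung cancer cell lines were treated by pin tool with a single drug, or with a fixed anchor-drug dose together with five library-drug doses (not always all listed) in √10 steps. After 5 days, a combined fix-and-stain solution (final 0.05% Triton X-100, 1% formaldehyde, 1 ug/ml Hoechst) was added. Nuclei counted on 4× images gave relative viability as treated counts over vehicle counts, reported as the median of duplicate plates.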

NCI-H2228 = tested on: NCI-H2228
Method in brief: as §1

HOP-62 = tested on: HOP-62
Method in brief: as §1

LOU-NH91 = tested on: LOU-NH91
Method in brief: as §1

NCI-H1734 = tested on: NCI-H1734
Method in brief: as §1

RERF-LC-KJ = tested on: RERF-LC-KJ
Method in brief: as §1

NCI-H2347 = tested on: NCI-H2347
Method in brief: as §1

LXF-289 = tested on: LXF-289
Method in brief: as §1

NCI-H1755 = tested on: NCI-H1755
Method in brief: as §1

NCI-H358 = tested on: NCI-H358
Method in brief: as §1

LC-2-ad = tested on: LC-2-ad
Method in brief: as §1

NCI-H2342 = tested on: NCI-H2342
Method in brief: as §1

NCI-H647 = tested on: NCI-H647
Method in brief: as §1

NCI-H1915 = tested on: NCI-H1915
Method in brief: as §1

NCI-H460 = tested on: NCI-H460
Method in brief: as §1

SW 1573 = tested on: SW 1573
Method in brief: as §1

NCI-H1975 = tested on: NCI-H1975
Method in brief: as §1

A-427 = tested on: A-427
Method in brief: as §1

SK-LU-1 = tested on: SK-LU-1
Method in brief: as §1

PC-3 [JPC-3] = tested on: PC-3 [JPC-3]
Method in brief: as §1

HCC-78 = tested on: HCC-78
Method in brief: as §1

HCC-15 = tested on: HCC-15
Method in brief: as §1

## C=C1C(=O)O[C@@H](CCCCCCCC)[C@@H]1C(=O)O [C-75] + Cc1cc(Nc2cc(N3CCN(C)CC3)nc(Sc3ccc(NC(=O)C4CC4)cc3)n2)n[nH]1 [Tozasertib] (partner 0.1 µM)
NCI-H2126; first compound 0.08 µM
  relative viability: 0.873
NCI-H2126; first compound 0.253 µM
  relative viability: 0.949
NCI-H2126; first compound 0.8 µM
  relative viability: 0.841
NCI-H2126; first compound 2.53 µM
  relative viability: 0.795
NCI-H2126; first compound 8 µM
  relative viability: 0.777
NCI-H2228; first compound 0.08 µM
  relative viability: 0.29
NCI-H2228; first compound 0.253 µM
  relative viability: 0.344
NCI-H2228; first compound 0.8 µM
  relative viability: 0.26
NCI-H2228; first compound 2.53 µM
  relative viability: 0.25
NCI-H2228; first compound 8 µM
  relative viability: 0.269
HOP-62; first compound 0.08 µM
  relative viability: 0.373
HOP-62; first compound 0.253 µM
  relative viability: 0.389
HOP-62; first compound 0.8 µM
  relative viability: 0.363
HOP-62; first compound 2.53 µM
  relative viability: 0.385
HOP-62; first compound 8 µM
  relative viability: 0.335
LOU-NH91; first compound 0.08 µM
  relative viability: 0.694
LOU-NH91; first compound 0.253 µM
  relative viability: 0.561
LOU-NH91; first compound 0.8 µM
  relative viability: 0.597
LOU-NH91; first compound 2.53 µM
  relative viability: 0.495
LOU-NH91; first compound 8 µM
  relative viability: 0.642
NCI-H1734; first compound 0.08 µM
  relative viability: 0.286
NCI-H1734; first compound 0.253 µM
  relative viability: 0.225
NCI-H1734; first compound 0.8 µM
  relative viability: 0.262
NCI-H1734; first compound 2.53 µM
  relative viability: 0.198
NCI-H1734; first compound 8 µM
  relative viability: 0.235
RERF-LC-KJ; first compound 0.08 µM
  relative viability: 0.561
RERF-LC-KJ; first compound 0.253 µM
  relative viability: 0.568
RERF-LC-KJ; first compound 0.8 µM
  relative viability: 0.557
RERF-LC-KJ; first compound 2.53 µM
  relative viability: 0.493
RERF-LC-KJ; first compound 8 µM
  relative viability: 0.536
NCI-H2347; first compound 0.08 µM
  relative viability: 0.558
NCI-H2347; first compound 0.253 µM
  relative viability: 0.74
NCI-H2347; first compound 0.8 µM
  relative viability: 0.517
NCI-H2347; first compound 8 µM
  relative viability: 0.534
LXF-289; first compound 0.08 µM
  relative viability: 0.193
LXF-289; first compound 0.253 µM
  relative viability: 0.18
LXF-289; first compound 0.8 µM
  relative viability: 0.183
LXF-289; first compound 2.53 µM
  relative viability: 0.119
LXF-289; first compound 8 µM
  relative viability: 0.182
NCI-H1755; first compound 0.08 µM
  relative viability: 0.568
NCI-H1755; first compound 0.253 µM
  relative viability: 0.638
NCI-H1755; first compound 0.8 µM
  relative viability: 0.552
NCI-H1755; first compound 2.53 µM
  relative viability: 0.512
NCI-H1755; first compound 8 µM
  relative viability: 0.572
NCI-H358; first compound 0.08 µM
  relative viability: 0.0979
NCI-H358; first compound 0.253 µM
  relative viability: 0.104
NCI-H358; first compound 0.8 µM
  relative viability: 0.104
NCI-H358; first compound 2.53 µM
  relative viability: 0.0847
NCI-H358; first compound 8 µM
  relative viability: 0.103
LC-2-ad; first compound 0.08 µM
  relative viability: 0.515
LC-2-ad; first compound 0.253 µM
  relative viability: 0.503
LC-2-ad; first compound 0.8 µM
  relative viability: 0.443
LC-2-ad; first compound 2.53 µM
  relative viability: 0.418
LC-2-ad; first compound 8 µM
  relative viability: 0.399
NCI-H2342; first compound 0.08 µM
  relative viability: 0.652
NCI-H2342; first compound 0.253 µM
  relative viability: 0.503
NCI-H2342; first compound 0.8 µM
  relative viability: 0.604
NCI-H2342; first compound 2.53 µM
  relative viability: 0.496
NCI-H2342; first compound 8 µM
  relative viability: 0.472
NCI-H647; first compound 0.08 µM
  relative viability: 0.24
NCI-H647; first compound 0.253 µM
  relative viability: 0.365
NCI-H647; first compound 0.8 µM
  relative viability: 0.211
NCI-H647; first compound 2.53 µM
  relative viability: 0.457
NCI-H647; first compound 8 µM
  relative viability: 0.233
NCI-H1915; first compound 0.08 µM
  relative viability: 0.405
NCI-H1915; first compound 0.253 µM
  relative viability: 0.403
NCI-H1915; first compound 0.8 µM
  relative viability: 0.432
NCI-H1915; first compound 2.53 µM
  relative viability: 0.409
NCI-H1915; first compound 8 µM
  relative viability: 0.429
NCI-H460; first compound 0.08 µM
  relative viability: 0.405
NCI-H460; first compound 0.253 µM
  relative viability: 0.798
NCI-H460; first compound 0.8 µM
  relative viability: 0.391
NCI-H460; first compound 2.53 µM
  relative viability: 0.657
NCI-H460; first compound 8 µM
  relative viability: 0.449
SW 1573; first compound 0.08 µM
  relative viability: 0.268
SW 1573; first compound 0.253 µM
  relative viability: 0.161
SW 1573; first compound 0.8 µM
  relative viability: 0.189
SW 1573; first compound 2.53 µM
  relative viability: 0.215
SW 1573; first compound 8 µM
  relative viability: 0.184
NCI-H1975; first compound 0.08 µM
  relative viability: 0.873
NCI-H1975; first compound 0.253 µM
  relative viability: 0.757
NCI-H1975; first compound 0.8 µM
  relative viability: 0.684
NCI-H1975; first compound 2.53 µM
  relative viability: 0.732
NCI-H1975; first compound 8 µM
  relative viability: 0.78
A-427; first compound 0.08 µM
  relative viability: 0.219
A-427; first compound 0.253 µM
  relative viability: 0.264
A-427; first compound 0.8 µM
  relative viability: 0.221
A-427; first compound 2.53 µM
  relative viability: 0.199
A-427; first compound 8 µM
  relative viability: 0.175
SK-LU-1; first compound 0.08 µM
  relative viability: 0.349
SK-LU-1; first compound 0.253 µM
  relative viability: 0.374
SK-LU-1; first compound 0.8 µM
  relative viability: 0.357
SK-LU-1; first compound 2.53 µM
  relative viability: 0.314
SK-LU-1; first compound 8 µM
  relative viability: 0.311
PC-3 [JPC-3]; first compound 0.08 µM
  relative viability: 0.902
PC-3 [JPC-3]; first compound 0.253 µM
  relative viability: 0.921
PC-3 [JPC-3]; first compound 0.8 µM
  relative viability: 0.896
PC-3 [JPC-3]; first compound 2.53 µM
  relative viability: 0.858
PC-3 [JPC-3]; first compound 8 µM
  relative viability: 0.992
HCC-78; first compound 0.08 µM
  relative viability: 0.431
HCC-78; first compound 0.253 µM
  relative viability: 0.505
HCC-78; first compound 0.8 µM
  relative viability: 0.458
HCC-78; first compound 2.53 µM
  relative viability: 1.28
HCC-78; first compound 8 µM
  relative viability: 0.444
HCC-15; first compound 0.08 µM
  relative viability: 0.457
HCC-15; first compound 0.253 µM
  relative viability: 0.608
HCC-15; first compound 0.8 µM
  relative viability: 0.407
HCC-15; first compound 2.53 µM
  relative viability: 0.427
HCC-15; first compound 8 µM
  relative viability: 0.39
